Experimental data: article PMC7661967, “Magnetic Resonance Molecular Imaging of Extradomain B Fibronectin Improves Imaging of Pancreatic Cancer Tumor Xenografts” (Frontiers in Oncology, 2020)
Entries after “also recorded” stand apart in the source; their conditions may differ. One block for each molecule: values may come before it. No end group written: not given here.

How the values were obtained:
EDB-FN in PaCa = details: PET; cited from earlier work
Excerpt: Molecular imaging of EDB-FN in cancer has been previously investigated with antibodies labeled with radioisotopes for PET imaging. Anti-EDN-FN antibody BC-1 was labeled with ^125I and tested in mice bearing U87 brain tumor and SKMel28 melanoma xenografts ([29]). […] Nanobodies with a smaller size were recently developed for molecular imaging of E ...

EDB-FN [1] = assay: ZD2-Cy5.5 staining of human pancreatic tissue; format: binding; details: 500 nM, 1 h, 37°C, confocal
Protocol: Tissue sections from PaCa patients (Case Comprehensive Cancer Center, Cleveland, OH) were deparaffinized with xylene, ethanol, and washed with water. Blocking was performed with 10% goat serum (Invitrogen, Carlsbad, CA) in PBS with 0.1% Tween 20 (PBS-T) for 30 min and incubated with 500 nM ZD2-Cy5.5 in PBS-T for 1 h at 37°C. Following three washes with PBS-T, the sections were mounted using Fluoroshield mounting medium (Abcam, Cambridge, UK). Images were acquired on a FV1000 (Olympus, Waltham, MA) confocal microscope using pre-programmed emission and excitation filters for Cy5.5 (excitation: 635 nm; emission: 693 nm) and DAPI (excitation: 405 nm; emission: 461 nm), using a 10 × objective lens. All tissue samples were imaged at the same laser power and sensor gain. Images were generated from single-channel grayscale images using FIJI software.

EDB-FN [2] = assay: Fluorescence staining of frozen mouse tumor xenograft and normal tissue sections; format: binding, human PaCa xenografts in nu/nu mice; details: for staining: ZD2-Cy5.5 500 nM, room temperature 2.5 h, BC-1 1:400, 4°C overnight
Protocol: For assessment of binding specificity of ZD2 peptide, flash frozen samples of tumor and normal tissues were collected from the euthanized tumor bearing mice and embedded in optimal cutting temperature media. The embedded samples were then immersed in liquid nitrogen for 5 min and transferred to −80°C for storage before cryosectioning. Tissue sections were blocked for 1 h in PBS containing 0.05% Tween-20 and 10% normal goat serum (Gibco, Gaithersburg, MD) and then stained with BC-1 primary monoclonal antibody (1:400) or ZD2-Cy5.5 (500 nM) at 4°C overnight or room temperature incubation for 2.5 h, respectively, and then washed with PBS-T buffer. Secondary Alexa Fluor 594 anti-rabbit was incubated with the BC-1 treated sections for 1 h at room temperature (1:1,000). For the blocking experiment, the tissue sections were first incubated with an excess of BC1 antibody at 4°C overnight, then washed three times with PBS-T. The sections were then incubated with ZD2-Cy5.5 at room temperature incubation for 2.5 h. The stained sections were washed with PBS-T buffer and images were acquired on an Olympus FV1000 (Waltham, MA) confocal microscope using pre-programmed emission and excitation filters for Cy5.5 (excitation: 635 nm; emission: 693 nm) and DAPI (excitation: 405 nm; emission: 461 nm), using a 10 × objective lens.

EDB-FN [3] = details: cited from earlier work
Protocol: ZD2 targeted MRI contrast agents have been developed and tested for MRMI of EDB-FN in aggressive breast cancer and prostate cancer models ([15], [16], [20]). The targeted contrast agent ZD2-N3-Gd(HP-DO3A) (MT218) was developed by conjugating ZD2 peptide to a clinical macrocyclic contrast agent Gd(HP-DO3A) ([16], [20]). […] MT218 is a small molecular conjugate of ZD2 peptide to a macrocyclic clinical MRI contrast agent Gd(HP-DO3A). The binding affinity of MT218 to EDB-FN was measured to be 3.2 ± 0.2 μM, which is similar to that of a previously targeted contrast agent ZD2-Gd(HP-DO3A) ([23]). The T1 and T2 relaxivities of MT218 were measured to be 6.07 ± 1.13 s^−1 mM^−1 and 8.20 ± 0.18 s^−1 mM^−1, respectively, at 3 T. T1 and T2 relaxivities of Gd(HP-DO3A) were measured to be 3.20 ± 0.96 s^−1 mM^−1 and 5. ...

[4] = tested on: BxPC3-GFP-Luc intrapancreatic tumor xenografts; assay: MRMI of BxPC3-GFP-Luc intrapancreatic tumor xenografts (3T); format: in vivo, human cells in female nu/nu mice
Protocol: (§1) For flank xenograft models, 4 × 10^6 Capan-1 cells suspended in 100 μL of a 6 mg/mL Matrigel (Corning, Corning, NY) solution was injected subcutaneously into the flank of 8-week-old female nu/nu mice. The tumor bearing mice were imaged after tumor volumes exceeded 300 mm^3. For orthotopic intrapancreatic models, the pancreas of 4-week-old female nu/nu mice were surgically exposed via a ~10 mm incision in the left ventral abdomen and the application of gentle pressure to express the spleen and associated pancreatic tissue. 1 × 10^6 BxPC3-GFP-Luc or PANC-1-GFP-Luc cells suspended in 100 μL of a Matrigel solution (6 mg/mL) was injected into the pancreatic tissue using an insulin syringe with a 31G needle. Any leakage of cell suspension was lavaged with DPBS twice to prevent intraabdominal seeding PaCa cells. The peritoneal fascia was closed with absorbable stitches, and the dermis closed with stainless steel wound clips. Prior to imaging, growth of tumor was verified by bioluminescence imaging with intraperitoneal injection of d-luciferin on IVIS Spectrum system (Perkin Elmer, Waltham, MA).
(§2) Mice bearing intrapancreatic tumors were anesthetized and a tail vein catheter was inserted. Image acquisition was performed on a MR Solutions 3T MRS 3000 scanner with a mouse radiofrequency coil. Axial images were obtained using a Fast Spin Echo (FSE) MRI sequence (305 ms TR, 11 ms TE, 90° FA, 4 cm × 4 cm FOV, 1 mm slice thickness, 10 slices, echo train length = 4, echo spacing = 11 ms, 4 averages, 256 × 256 matrix, 0.0156 × […] cm/pixel resolution) with respiratory gating. Images were acquired before contrast and at different time points after contrast injection at a dose of 0.1 mmol/kg (100 μL). For competitive binding experiments, a 5:1 molar ratio of free ZD2 peptide to MT218 was injected in mice bearing intrapancreatic BxPC3 tumor xenografts (n = 3) at a dose of 0.1 mmol MT218/kg (100 μL). Images obtained on the MR Solutions 3T scanner were normalized using the Surscalereader.exe (MR Solutions, Guildford, UK) program supplied.
(§3) Image files were exported and analyzed in Horus software. ROIs were drawn in the tumor, liver, kidney, and muscle. Muscle ROIs were taken from the muscle, with other structures (liver, kidney, tumor) identified after comparison with published images and comparison with anatomical landmarks or bioluminescent imaging. Pancreatic lesions were localized using the liver, kidney, and spleen as anatomical landmarks. […] Size of ROIs drawn for image analysis are summarized in Supplementary Table 1. The contrast-to-noise ratio of the tumor (CNR) was calculated using the following equation, where σnoise is the standard deviation of intensities from an ROI drawn outside of the mouse body:
(§4) CNR=Mean IntensityTumor-Mean IntensityMuscle/σnoise.
(§5) Image subtraction was performed on images adjusted to the same window and level in FIJI open-source software.
(§6) Image contrast was reported as fold enhancement of contrast to noise ratio of post-contrast images over pre-contrast images using Fold Enhancement = CNRpost/CNRpre. Statistical analysis of CNR was performed in Minitab Express (Minitab Inc., State College, PA). One-way ANOVA with Fisher Individual Tests for Differences of Means post-hoc testing was performed to determine statistical significance between >2 means (p < 0.05). Student's T test was used to determine statistical significance between 2 means (p < 0.05).

[5] = tested on: PANC-1-GFP-Luc intrapancreatic tumor xenografts; assay: MRMI of PANC-1-GFP-Luc intrapancreatic tumor xenografts (3T); format: in vivo, human cells in female nu/nu mice; details: 0.1 mmol/kg, 10 min post-injection, n = 6
Protocol: as §1, §2, §3, §4, §5, §6

[6] = tested on: Capan-1 flank tumor xenografts; assay: MRMI of Capan-1 flank tumor xenografts (7T); format: in vivo, human cells in female nu/nu mice; details: 0.1 mmol/kg
Protocol: as §1
Flank tumor-bearing mice were anesthetized and a tail vein catheter inserted. MR image acquisition was performed on a 7T Biospin (Bruker, Billerica, MA) preclinical small animal scanner with a volume radiofrequency coil. Axial images were obtained using a multi-spin multi-echo (MSME) MRI sequence (500 ms TR, 8.1 ms TE, 90° FA, 4.50 cm × 4.50 cm FOV, 1.50 mm slice thickness, 16 slices, 2 averages, 200 × 200 matrix, 0.0225 × 0.0225 cm/pixel resolution). Contrast agents were injected at a dose of 0.1 mmol/kg (100 μL) via the tail vein catheter, followed by a saline flush. Images of the tumors were acquired before contrast and at various time points after contrast administration. Gd(HP-DO3A) was used as a control.
as §3, §4, §5, §6

[7] = T1 and T2 relaxivity measurement at 3T; format: physicochemical; details: 0-2 mM MT218 in DPBS buffer
Protocol: The T1 and T2 values of MT218 and Gd(HP-DO3A) solutions were determined using a 3T MRS 3000 scanner (MR Solutions, Guildford, UK). Solutions of MT218 were prepared at concentrations of 0, 0.25, 0.5, 1, and 2 mM in DPBS buffer (Gibco, Gaithersburg, MD). T1 values were measured using an inversion recovery-fast low angle shot (IR-FLASH) sequence (τ = 10 ms, TE = 4 ms, FA = 8°, echoes/frames = 128, FOV = 40 mm × 40 mm, slice thickness = 2 mm, number of averages = 1, time delay = 4,000 ms, sample period = 200, matrix = 256 × 128). T2 values were obtained using a multi-echo multi-slice (MEMS) sequence (TE = 15 ms, […], echoes = 10, FOV: 40 mm × 40 mm, slice thickness = 1 mm, number of averages = 1, matrix = 256 × 192). The r1 and r2 relaxivities were calculated from the slopes of 1/T1 and 1/T2 vs. Gd concentration plots, respectively.

[8] = biological target: extradomain B fibronectin in human PaCa tumor xenografts in mice (human (endogenous in BxPC3, Capan-1 and PANC-1 xenografts))
[9] = biological target: extradomain B fibronectin in human PaCa tumor xenografts in mice (human (endogenous in BxPC3, Capan-1 and PANC-1 xenografts)); remark: listed apart in the source
EDB fragment of FN = assay: MST; NT-647-labelled EDB fragment at a fixed concentration, MT218 varied; 50 mM PBS w/0.05% Tween-20; 25°C; Monolith NT.115
[10] = 0.1 mmol/kg, 10 min post-injection, n = 3

Molecule: ZD2-((68)Ga-NOTA) [ZD2 peptide labeled with ^68Ga]
molecular imaging of EDB-FN in PaCa (EDB-FN in PaCa): sensitive and specific molecular imaging of EDB-FN in PaCa

ZD2-Cy5.5 binding / EDB-FN expression (EDB-FN [1]; human PaCa tissue): high EDB-FN expression and high | ZD2-Cy5.5 binding / EDB-FN expression (EDB-FN [1]; normal pancreatic tissue): little expression and low | ZD2-Cy5.5 binding / EDB-FN expression (EDB-FN [1]; precancerous PanIN tissue): moderate expression
Molecule: ZD2-Cy5.5: peptide-fluorophore conjugate (TVRTSAD; also: Cy5.5 conjugate, end of attachment not given here)
staining (EDB-FN [2]; BxPC3, Capan-1 and PANC-1 tumor tissues): high in all three tumor tissues | ZD2-Cy5.5 binding after blocking (EDB-FN [2]; flash frozen tumor tissues pre-incubated with excess BC-1 antibody, 4°C overnight, then ZD2-Cy5.5): No fluorescent signal; also recorded: blocked | staining (EDB-FN [2]; normal pancreatic and muscle tissues): undetectable; also recorded: No staining

Molecule: TVRTSAD [ZD2]
binding to EDB-FN (specificity) (EDB-FN [3]): binds with high specificity to EDB-FN | effect of free ZD2 peptide on binding of MT218 ([4]; 5:1 molar ratio free ZD2 peptide to MT218, co-injection, n = 3): blocked the binding of the MT218 to the tumors; also recorded: inhibited the binding of MT218

Molecule: CC(O)CN1CCN(CC(=O)[O-])CCN(CC(=O)[O-])CCN(CC(=O)[O-])CC1.[Gd+3] (stereo not shown) [Gd(HP-DO3A), reference compound]
tumor CNR increase compared with MT218 ([4]; 0.1 mmol/kg, 10 min, p < 0.01): significantly less than that with MT218 | tumor CNR increase (post/pre) ([4]; 0.1 mmol/kg, 10 min post-injection (maximum for MT218), n = 3): approximately 2.5 fold | tumor contrast enhancement [4, 10]: modest contrast enhancement | tumor enhancement, subtraction images [4, 10]: less intratumoral signal enhancement | tumor contrast enhancement ([4]; 0.1 mmol/kg, 20 min post-injection, n = 3): reduced to background level | intratumoral CNR increase (post/pre) [5]: 2.35 fold | tumor contrast enhancement [5]: did not produce significant tumor contrast enhancement | tumor signal enhancement, subtraction images [5]: little change | contrast enhancement in tumor core ([6]; after injection): did not exhibit significant tumor core enhancement | enhancement in tumor periphery, subtraction images ([6]; early time points (5–15 min post-contrast)): modest peripheral contrast enhancement | intratumoral CNR increase (post/pre) ([6]; for the duration of the experiment, n = 5): 1.77 fold | contrast enhancement throughout tumors, subtraction images ([6]; later time points (25–35 min) for MT218, all time points for Gd(HP-DO3A)): little to no intratumoral contrast | intratumoral CNR increase compared with MT218 ([6]; p < 0.01): significantly less than MT218 | T1 relaxivity (r1) ([7]; IR-FLASH): 3.20 ± 0.96 s⁻¹ mM⁻¹ | T2 relaxivity (r2) ([7]; MEMS): 5.12 ± 0.18 s⁻¹ mM⁻¹

tumor CNR fold increase, T1-weighted MRI, BxPC3-GFP-Luc intrapancreatic model, MT218 0.1 mmol/kg without the free ZD2 peptide [8]: 4.5 fold | tumor contrast-to-noise ratio (CNR) fold increase, T1-weighted MRI, BxPC3-GFP-Luc intrapancreatic model, MT218 0.1 mmol/kg co-injected with a 5-fold excess of free ZD2 peptide [8]: 2.5 fold | tumor CNR fold increase, T1-weighted MRI, Capan-1 flank xenografts, MT218 0.1 mmol/kg, time course 5-35 min post-injection (maximum at 15 min) [9]: 4.8 fold | Kd (EDB fragment of FN): 3.2 µM
Molecule: TVRTSAD (also: conjugated to Gd(HP-DO3A) via N3, end of attachment not given here) [ZD2-N3-Gd(HP-DO3A)]
